Reference: patent US11696898B2, “Halogenated ether compounds and methods of inducing anesthesia” (The Regents of the University of California, priority 2014, dated 2023)
“Also recorded” adds a separate entry of the source. Where two headings read alike, the source gives them in different places.

What was measured:
mice = experiment: General anesthesia in mice (MAC for loss of righting reflex); format: in vivo; conditions: inhaled, closed microcircuit
Method: In a method to measure the minimum alveolar concentration (MAC) for Loss Of Righting Reflex (MACLORR), for assessing the performance of a compound as a general anesthetic, mice were placed in a 3.5 cm diameter, 14.5 cm long acrylic cylinder connected on either end via unidirectional valves to a closed microcircuit containing a carbon dioxide absorbent vessel, latex balloon breathing bag, sampling port, and 100 mL glass syringe-driven piston. […] The procedures for measuring MACLORR and MAC, as well as general methods for measuring agent concentrations by gas chromatography, have been described in Deady J E, Koblin D D, Eger E I, 2nd, Heavner J E, D'Aoust B: Anesthetic potencies and the unitary theory of narcosis. Anesth Analg 1981; 60: 380-4; Brosnan R J, Thiesen R: Increased NMDA receptor inhibition at an increased Sevoflurane MAC. BMC Anesthesiol 2012; 12: 9; and Brosnan R J: GABA(A) receptor antagonism increases NMDA receptor inhibition by isoflurane at a minimum alveolar concentration. Vet Anaesth Analg 2011; 38: 231-9, the disclosures of which are incorporated by reference in their entireties.

NMDA receptors = experiment: NMDA receptor modulation at a saturated aqueous phase concentration; format: cell-based

Row | Compound | general anesthesia in mice (mice) | modulation/inhibition of NMDA receptors (NMDA receptors; listed as 1-bromo-1,1,2-trifluoro-2-(trifluoromethoxy)-ethane) | modulation/inhibition of NMDA receptors (NMDA receptors)
1 | FC(OC(F)(F)F)C(F)(F)Br (stereo not drawn) [Ethane, 1-bromo-1,1,2-trifluoro-2-(trifluoromethoxy)-] | produced general anesthesia | devoid of NMDA receptor effects; also recorded: does not modulate NMDA receptors | 
2 | COC(F)(C(F)(F)F)C(F)(F)F [Propane, 1,1,1,2,3,3,3-heptafluoro-2-methoxy-] |  |  | inhibits NMDA receptors
